Source: patent US9156796B2, “Benzoimidazole-carboxylic acid amide derivatives as APJ receptor modulators” (SANOFI, priority 2013, dated 2015)

Molecular target: T1, human apelin receptor (Homo sapiens, UniProt P35414)
T1 construct: expressed in transfected cells
T1 sequence (P35414 1-380): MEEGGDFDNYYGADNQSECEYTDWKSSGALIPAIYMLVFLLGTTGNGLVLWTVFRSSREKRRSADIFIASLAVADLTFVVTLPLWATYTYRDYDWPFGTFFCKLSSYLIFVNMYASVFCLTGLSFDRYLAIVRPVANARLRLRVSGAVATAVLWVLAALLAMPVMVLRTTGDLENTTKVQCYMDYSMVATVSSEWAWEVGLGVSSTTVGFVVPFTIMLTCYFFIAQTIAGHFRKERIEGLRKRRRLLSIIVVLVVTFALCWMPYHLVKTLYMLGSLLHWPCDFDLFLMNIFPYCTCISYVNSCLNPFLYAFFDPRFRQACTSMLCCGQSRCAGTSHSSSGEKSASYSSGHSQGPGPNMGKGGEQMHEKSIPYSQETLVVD
Assay: Determination of agonism on the human apelin receptor by a calcium fluorescence assay (FLIPR)
Type: cell-based
Conditions: HEK293 cells stably transfected with human apelin receptor and Giaq protein, Fluo-4 calcium fluorescence, read-out: EC50 (APJ agonism)
In short: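 HEK293 cells stably co-expressing human apelin receptor and promiscuous Giaq, loaded 1 h at 37 °C with Fluo-4 (4 μM) in probenecid-containing Hepes buffer, pH 7.4. Compounds, at least 7 concentrations in triplicate, added in FLIPR Tetra; peak calcium fluorescence normalized to 1 μM apelin-13 as 100% to derive EC50.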

EC50 | SMILES
999 nM | CCC(CC)n1c(Cc2cccs2)nc2cc(C(=O)N[C@@H](CC(C)C)C(=O)NCCCN3CCS(=O)(=O)CC3)ccc21 [Example 342, 1-(1-Ethyl-propyl)-2-thiophen-2-ylmethyl-1H-benzoimidazole-5-carboxylic acid {(S)-1-[3-(1,1-dioxo-1lambda6-thiomorpholin-4-yl)-propylcarbamoyl]-3-methyl-butyl}-amide]
419 nM | CCC(CC)n1c(Cc2cccs2)nc2cc(C(=O)N[C@@H](CC(C)C)C(=O)NCC3CN(C)CCO3)ccc21 (stereo partly drawn) [Example 343, 1-(1-Ethyl-propyl)-2-thiophen-2-ylmethyl-1H-benzoimidazole-5-carboxylic acid {(S)-3-methyl-1-[(4-methyl-morpholin-2-ylmethyl)-carbamoyl]-butyl}-amide]
1690 nM | CCC(CC)n1c(Cc2cccs2)nc2cc(C(=O)N[C@@H](CC(C)C)C(=O)NC3CCN(CC4CCCCC4)CC3)ccc21 [Example 344, 1-(1-Ethyl-propyl)-2-thiophen-2-ylmethyl-1H-benzoimidazole-5-carboxylic acid [(S)-1-(1-cyclohexylmethyl-piperidin-4-ylcarbamoyl)-3-methyl-butyl]-amide]
1670 nM | CCC(CC)n1c(Cc2cccs2)nc2cc(C(=O)N[C@@H](CC(C)C)C(=O)N3CCC(N(C)Cc4ccccc4)CC3)ccc21 [Example 345, 1-(1-Ethyl-propyl)-2-thiophen-2-ylmethyl-1H-benzoimidazole-5-carboxylic acid {(S)-1-[4-(benzyl-methyl-amino)-piperidine-1-carbonyl]-3-methyl-butyl}-amide]
1320 nM | CCC(CC)n1c(Cc2cccs2)nc2cc(C(=O)N[C@@H](CC(C)C)C(=O)NCCCN3CCC(Cc4ccccc4)CC3)ccc21 [Example 346, 1-(1-Ethyl-propyl)-2-thiophen-2-ylmethyl-1H-benzoimidazole-5-carboxylic acid {(S)-1-[3-(4-benzyl-piperidin-1-yl)-propylcarbamoyl]-3-methyl-butyl}-amide]
809 nM | CCC(CC)n1c(Cc2cccs2)nc2cc(C(=O)N[C@@H](CC(C)C)C(=O)N3CC4CC3CN4CC)ccc21 (stereo partly drawn) [Example 347, 1-(1-Ethyl-propyl)-2-thiophen-2-ylmethyl-1H-benzoimidazole-5-carboxylic acid [(S)-1-(5-ethyl-2,5-diaza-bicyclo[2.2.1]heptane-2-carbonyl)-3-methyl-butyl]-amide]
2660 nM | CCC(CC)n1c(Cc2cccs2)nc2cc(C(=O)N[C@@H](CC(C)C)C(=O)N3CC4CC3CN4CC(C)C)ccc21 (stereo partly drawn) [Example 348, 1-(1-Ethyl-propyl)-2-thiophen-2-ylmethyl-1H-benzoimidazole-5-carboxylic acid [(S)-1-(5-isobutyl-2,5-diaza-bicyclo[2.2.1]heptane-2-carbonyl)-3-methyl-butyl]-amide]
3040 nM | CCC(CC)n1c(Cc2cccs2)nc2cc(C(=O)N[C@@H](CC(C)C)C(=O)N3CC4CC3CN4CC3CCCC3)ccc21 (stereo partly drawn) [Example 349, 1-(1-Ethyl-propyl)-2-thiophen-2-ylmethyl-1H-benzoimidazole-5-carboxylic acid [(S)-1-(5-cyclopentylmethyl-2,5-diaza-bicyclo[2.2.1]heptane-2-carbonyl)-3-methyl-butyl]-amide]
29100 nM | CCC(CC)n1c(Cc2cccs2)nc2cc(C(=O)N[C@@H](CC(C)C)C(=O)N3CC4CC3CN4Cc3ccc(C(F)(F)F)cc3)ccc21 (stereo partly drawn) [Example 350, 1-(1-Ethyl-propyl)-2-thiophen-2-ylmethyl-1H-benzoimidazole-5-carboxylic acid {(S)-3-methyl-1-[5-(4-trifluoromethyl-benzyl)-2,5-diaza-bicyclo[2.2.1]heptane-2-carbonyl]-butyl}-amide]
9290 nM | CCC(CC)n1c(Cc2cccs2)nc2cc(C(=O)N[C@@H](CC(C)C)C(=O)N3CC4CC3CN4Cc3ccc(OC)cc3)ccc21 (stereo partly drawn) [Example 351, 1-(1-Ethyl-propyl)-2-thiophen-2-ylmethyl-1H-benzoimidazole-5-carboxylic acid {(S)-1-[5-(4-methoxy-benzyl)-2,5-diaza-bicyclo[2.2.1]heptane-2-carbonyl]-3-methyl-butyl}-amide]
2980 nM | CCC(CC)n1c(Cc2cccs2)nc2cc(C(=O)N[C@@H](CC(C)C)C(=O)NC3CCN(c4ncccn4)CC3)ccc21 [Example 352, 1-(1-Ethyl-propyl)-2-thiophen-2-ylmethyl-1H-benzoimidazole-5-carboxylic acid [(S)-3-methyl-1-(1-pyrimidin-2-yl-piperidin-4-ylcarbamoyl)-butyl]-amide]
787 nM | CCC(CC)n1c(Cc2cccs2)nc2cc(C(=O)N[C@@H](CC(C)C)C(=O)NCC3CCN(C(C)c4ccccc4)C3)ccc21 (stereo partly drawn) [Example 353, 1-(1-Ethyl-propyl)-2-thiophen-2-ylmethyl-1H-benzoimidazole-5-carboxylic acid ((S)-3-methyl-1-{[1-(1-phenyl-ethyl)-pyrrolidin-3-ylmethyl]-carbamoyl}-butyl)-amide]
998 nM | CCCC1CCN(CCCNC(=O)[C@H](CC(C)C)NC(=O)c2ccc3c(c2)nc(Cc2cccs2)n3C(CC)CC)CC1 [Example 354, 1-(1-Ethyl-propyl)-2-thiophen-2-ylmethyl-1H-benzoimidazole-5-carboxylic acid {(S)-3-methyl-1-[3-(4-propyl-piperidin-1-yl)-propylcarbamoyl]-butyl}-amide]
1520 nM | CCC(CC)n1c(Cc2cccs2)nc2cc(C(=O)N[C@@H](CC(C)C)C(=O)NCC3CN(CC(C)C)CCO3)ccc21 (stereo partly drawn) [Example 355, 1-(1-Ethyl-propyl)-2-thiophen-2-ylmethyl-1H-benzoimidazole-5-carboxylic acid {(S)-1-[(4-isobutyl-morpholin-2-ylmethyl)-carbamoyl]-3-methyl-butyl}-amide]
4260 nM | CCC(CC)n1c(Cc2cccs2)nc2cc(C(=O)N[C@@H](CC(C)C)C(=O)NCC3CN(Cc4ccc(F)cc4)CCO3)ccc21 (stereo partly drawn) [Example 356, 1-(1-Ethyl-propyl)-2-thiophen-2-ylmethyl-1H-benzoimidazole-5-carboxylic acid ((S)-1-{[4-(4-fluoro-benzyl)-morpholin-2-ylmethyl]-carbamoyl}-3-methyl-butyl)-amide]
389 nM | CCC(CC)n1c(Cc2cccs2)nc2cc(C(=O)N[C@@H](CC(C)C)C(=O)N(C)C)ccc21 [Example 357, 1-(1-Ethyl-propyl)-2-thiophen-2-ylmethyl-1H-benzoimidazole-5-carboxylic acid ((S)-1-dimethyl-carbamoyl-3-methyl-butyl)-amide]
2570 nM | CCC(CC)n1c(Cc2cccs2)nc2cc(C(=O)N[C@@H](CC(C)C)C(=O)NCCCOC(C)C)ccc21 [Example 358, 1-(1-Ethyl-propyl)-2-thiophen-2-ylmethyl-1H-benzoimidazole-5-carboxylic acid [(S)-1-(3-isopropoxy-propylcarbamoyl)-3-methyl-butyl]-amide]
2140 nM | CCOCCCNC(=O)[C@H](CC(C)C)NC(=O)c1ccc2c(c1)nc(Cc1cccs1)n2C(CC)CC [Example 359, 1-(1-Ethyl-propyl)-2-thiophen-2-ylmethyl-1H-benzoimidazole-5-carboxylic acid [(S)-1-(3-ethoxy-propylcarbamoyl)-3-methyl-butyl]-amide]
21200 nM | CCC(CC)n1c(Cc2cccs2)nc2cc(C(=O)N[C@@H](CC(C)C)C(=O)NCCc3cccc(OC)c3)ccc21 [Example 360, 1-(1-Ethyl-propyl)-2-thiophen-2-ylmethyl-1H-benzoimidazole-5-carboxylic acid {(S)-1-[2-(3-methoxy-phenyl)-ethylcarbamoyl]-3-methyl-butyl}-amide]
25000 nM | CCC(CC)n1c(Cc2cccs2)nc2cc(C(=O)N[C@@H](CC(C)C)C(=O)NCCc3ccc(OC)cc3)ccc21 [Example 361, 1-(1-Ethyl-propyl)-2-thiophen-2-ylmethyl-1H-benzoimidazole-5-carboxylic acid {(S)-1-[2-(4-methoxy-phenyl)-ethylcarbamoyl]-3-methyl-butyl}-amide]
27100 nM | CCC(CC)n1c(Cc2cccs2)nc2cc(C(=O)N[C@@H](CC(C)C)C(=O)NCCc3ccccc3OC)ccc21 [Example 362, 1-(1-Ethyl-propyl)-2-thiophen-2-ylmethyl-1H-benzoimidazole-5-carboxylic acid {(S)-1-[2-(2-methoxy-phenyl)-ethylcarbamoyl]-3-methyl-butyl}-amide]
1720 nM | CCC(CC)n1c(Cc2cccs2)nc2cc(C(=O)N[C@@H](CC(C)C)C(=O)N(CCOC)CCOC)ccc21 [Example 363, 1-(1-Ethyl-propyl)-2-thiophen-2-ylmethyl-1H-benzoimidazole-5-carboxylic acid {(S)-1-[bis-(2-methoxy-ethyl)-carbamoyl]-3-methyl-butyl}-amide]
13500 nM | CCC(CC)n1c(Cc2cccs2)nc2cc(C(=O)N[C@@H](CC(C)C)C(=O)NCc3cccc(OC)c3)ccc21 [Example 364, 1-(1-Ethyl-propyl)-2-thiophen-2-ylmethyl-1H-benzoimidazole-5-carboxylic acid [(S)-1-(3-methoxy-benzylcarbamoyl)-3-methyl-butyl]-amide]
2750 nM | CCC(CC)n1c(Cc2cccs2)nc2cc(C(=O)N[C@@H](CC(C)C)C(=O)N3CCC[C@@H]3COC)ccc21 [Example 365, 1-(1-Ethyl-propyl)-2-thiophen-2-ylmethyl-1H-benzoimidazole-5-carboxylic acid [(S)-1-((R)-2-methoxymethyl-pyrrolidine-1-carbonyl)-3-methyl-butyl]-amide]
